Converted amounts (≈) assume the structure as drawn.
Experiments:
Test in all cases: MIC/MBC broth-dilution (micromethod), CLSI
Assay type in all cases: cell-based
[1] = tested on: S. Aureus strain 1 (collection) mec a+; settings: Staphylococcus aureus; for MBC: kills 99,9% of initial population; for MIC: marked *: MIC value read at 48 hours
From the text: (§1) Determination of Minimal Inhibitory Concentration (MIC), Minimal Bactericidal Concentration (MBC), bactericidal curves and killing rate on Gram positive and Gram negative bacteria strains, for the evaluation of the bactericidal activity of compounds of example 1 (n. 1 to 14).
(§2) In details, phenotypic methods based on in vitro MIC and MBC determination have been performed on previously isolated bacterial strains, identified and characterized at the level of their antibiotic susceptibility profile. According to MIC and MBC data, the Killing Rate was calculated as the ratio between MBC and MIC on which basis it is possible to define the compounds tested as bactericides (killing rate=1-4), or bacteriostatic (killing rate >4).
(§3) Preparation of the solution containing molecules: for each molecule to be tested, solutions were made as DMSO Stock, with a concentration of 2.560 mg/ml, used to test 12 dilutions with the following scalar drug concentrations: 512-256-128-64-32-16-8-4-2-1-0.5-0.25 μg/ml. The scalar dilutions were prepared directly on plates by using Mueller Hinton Broth (MHB) as a solvent.
Bacterial suspension preparation: cryostrains preserved at −80° C. were recovered by incubation in growth medium (Brain Heart Infusion Broth, BHI) for 24-48 hours at 37° C. followed by passages in agar growth medium (Columbia Blood Agar). Colonies with less than 30 hours are suspended in MHB with the purpose to prepare a bacterial suspension with a turbidity of 0.5 MF, containing approximately 1.5×10^8 cfu/ml. This injection is additionally diluted in MHB until reaching a final concentration of 5×10^5 cfu/ml (range 3-7×10^5 cfu/ml). Identical volumes of this bacterial suspension are added on a plate, for each well containing drug scalar dilutions, to obtain a final concentration between 512 a 0.25 μg/ml. The set up of bacterial suspensions as well as the passage on slate has always been performed within 30 minutes, in order not to alter the concentration of the bacterial suspension. Simultaneously, check in broth-microdilution only with solvent (in order to exclude that the effect of growth inhibition might be due to the drug solution solvent), positive growth control in absence of DMSO and drug, and negative purity control only with injection broth are performed. As a consequence the slate is incubated at 37° C. for 24 and 48 hours in aerobes. […] The same observations are valid to evaluate 48 hours MIC. After the incubation, an equal volume of bacterial suspension from each well is plated on agar growth medium and incubated for 24-48 hours at a temperature of 37° C. in aerobes, in order to define the MBC after the incubation.
Bacterial strains: the bactericidal and/or bacteriostatic power of the synthesized compounds can be determined by using standard reference strains such as: • 1. S. Aureus ATCC 25923 res kan, tob, res streptogramine (sga-sgb, efflux), res mupirocina (at low level), res trimetoprim; • 2. S. Aureus strain 1 (collection) mec a+, res kan tob gen, res quinolones, lincosamides, res streptogramine (sga-sgb), mlsb+sa constituent, mlsb constituent, res mupirocine (low level), res trimetoprim; • 3. S. Aureus strain 2 (collection) acquired penicillinase, res kan tob, res streptogramine (sga-sgb, efflux), res mupirocine (low level), res trimetoprim; • 4. Enterococcus faecalis ATCC 51299 (str+gen res at high level, mlsb res, simil van b res); • 5. Enterococcus faecalis strain 1 (collection) (str+kan res at high level str res at high level tetracycline res); • 6. Enterococcus faecalis strain 2 (collection) (kan res at high level); • 7. E. coli of Collection: RESISTANT to ampicilline, amox+ac clav, ampicillinr+sulbactam, cefalexine, cefuroxime, cefuroxime axetil, cefixime, cefpodoxime, cefotaxime, ceftazidime, ceftriaxone, netilmicine, tobramicine, ciprofloxcine, trim/sulfametox, esbl pos, SENSITIVE to meropenem and gentamicine, INTERMEDIATE to amikacine; • 8. 8.

[2] = tested on: A. baumannii of collection; settings: Acinetobacter baumannii; for MBC: kills 99,9% of initial population
From the text: as §1
as §2, with “Sensitivity tests have been performed in broth-dilution (micromethod) with the purpose to test the possible bacteriostatic and/or bactericidal power in different compounds, in accordance with CLSI guidelines (Clinical and Laboratory Standards Institute). In” for “In”
as §3
(§4) Bacterial suspension preparation: cryostrains preserved at −80° C. were recovered by incubation in growth medium (Brain Heart Infusion Broth, BHI) for 24-48 hours at 37° C. followed by passages in agar growth medium (Columbia Blood Agar). Colonies with less than 30 hours are suspended in MHB with the purpose to prepare a bacterial suspension with a turbidity of 0.5 MF, containing approximately 1.5×10^8 cfu/ml. This injection is additionally diluted in MHB until reaching a final concentration of 5×10^5 cfu/ml (range 3-7×10^5 cfu/ml). Identical volumes of this bacterial suspension are added on a plate, for each well containing drug scalar dilutions, to obtain a final concentration between 512 a 0.25 μg/ml. The set up of bacterial suspensions as well as the passage on slate has always been performed within 30 minutes, in order not to alter the concentration of the bacterial suspension. Simultaneously, check in broth-microdilution only with solvent (in order to exclude that the effect of growth inhibition might be due to the drug solution solvent), positive growth control in absence of DMSO and drug, and negative purity control only with injection broth are performed. As a consequence the slate is incubated at 37° C. for 24 and 48 hours in aerobes. The 24 hours MIC is considered as the minimum drug concentration able to inhibit bacterial growth, which makes it possible to observe the absence of bacterial growth and the absence of turbidity. The same observations are valid to evaluate 48 hours MIC. After the incubation, an equal volume of bacterial suspension from each well is plated on agar growth medium and incubated for 24-48 hours at a temperature of 37° C. in aerobes, in order to define the MBC after the incubation. The MBC is evaluated as the minimum concentration of drug able to kill the 99,9% of the initial bacterial population.
(§5) Bacterial strains: the bactericidal and/or bacteriostatic power of the synthesized compounds can be determined by using standard reference strains such as: • 1. S. Aureus ATCC 25923 res kan, tob, res streptogramine (sga-sgb, efflux), res mupirocina (at low level), res trimetoprim; • 2. S. Aureus strain 1 (collection) mec a+, res kan tob gen, res quinolones, lincosamides, res streptogramine (sga-sgb), mlsb+sa constituent, mlsb constituent, res mupirocine (low level), res trimetoprim; • 3. S. Aureus strain 2 (collection) acquired penicillinase, res kan tob, res streptogramine (sga-sgb, efflux), res mupirocine (low level), res trimetoprim; • 4. Enterococcus faecalis ATCC 51299 (str+gen res at high level, mlsb res, simil van b res); • 5. […]

E. coli of Collection = settings: Escherichia coli
From the text: as §1
as §2, with “Sensitivity tests have been performed in broth-dilution (micromethod) with the purpose to test the possible bacteriostatic and/or bactericidal power in different compounds, in accordance with CLSI guidelines (Clinical and Laboratory Standards Institute). In” for “In”
as §3, §4, §5

[3] = tested on: Enterococcus faecalis ATCC 51299; settings: for MBC: ATCC51299, E. FAECALIS ATCC 51299, kills 99,9% of initial population; for MIC: ATCC51299, E. FAECALIS ATCC 51299, values without asterisk
From the text: as §1
as §2, with “Sensitivity tests have been performed in broth-dilution (micromethod) with the purpose to test the possible bacteriostatic and/or bactericidal power in different compounds, in accordance with CLSI guidelines (Clinical and Laboratory Standards Institute). In” for “In”
as §3, §4, §5

[4] = tested on: Enterococcus faecalis strain 1 (collection); settings: for MBC: E. FAECALIS strain 1, kills 99,9% of initial population
From the text: as §1
as §2, with “Sensitivity tests have been performed in broth-dilution (micromethod) with the purpose to test the possible bacteriostatic and/or bactericidal power in different compounds, in accordance with CLSI guidelines (Clinical and Laboratory Standards Institute). In” for “In”
as §3, §4, §5

[5] = tested on: Enterococcus faecalis strain 2 (collection); settings: for MBC: E. FAECALIS strain 2, kills 99,9% of initial population
From the text: as §1
as §2, with “Sensitivity tests have been performed in broth-dilution (micromethod) with the purpose to test the possible bacteriostatic and/or bactericidal power in different compounds, in accordance with CLSI guidelines (Clinical and Laboratory Standards Institute). In” for “In”
as §3, §4, §5

[6] = tested on: P. Aeruginosa of collection; settings: Pseudomonas aeruginosa
From the text: as §1
as §2, with “Sensitivity tests have been performed in broth-dilution (micromethod) with the purpose to test the possible bacteriostatic and/or bactericidal power in different compounds, in accordance with CLSI guidelines (Clinical and Laboratory Standards Institute). In” for “In”
as §3, §4, §5

S. Aureus ATCC 25923 = settings: Staphylococcus aureus; for MBC: ATCC25923, kills 99,9% of initial population
From the text: as §1
as §2, with “Sensitivity tests have been performed in broth-dilution (micromethod) with the purpose to test the possible bacteriostatic and/or bactericidal power in different compounds, in accordance with CLSI guidelines (Clinical and Laboratory Standards Institute). In” for “In”
as §3, §4, §5

[7] = tested on: S. Aureus strain 2 (collection); settings: Staphylococcus aureus; for MBC: kills 99,9% of initial population; for MIC: values without asterisk
From the text: as §1
as §2, with “Sensitivity tests have been performed in broth-dilution (micromethod) with the purpose to test the possible bacteriostatic and/or bactericidal power in different compounds, in accordance with CLSI guidelines (Clinical and Laboratory Standards Institute). In” for “In”
as §3, §4, §5

[8] = ATCC25923, values without asterisk
[9] = E. FAECALIS strain 1, marked *: MIC value read at 48 hours
[10] = E. FAECALIS strain 2, marked *: MIC value read at 48 hours

Compound	MBC [1]	MIC [1]	MIC [2]	MIC (E. coli of Collection)	MBC [3]	MIC [3]	MBC [4]	MIC ([4]; E. FAECALIS strain 1, values without asterisk)	MBC [5]	MIC ([5]; E. FAECALIS strain 2, values without asterisk)	MIC [6]	MBC (S. Aureus ATCC 25923)	MIC (S. Aureus ATCC 25923; [8])	MBC [7]	MIC [7]	MBC [2]	MIC [4, 9]	MIC [5, 10]	MIC (S. Aureus ATCC 25923; ATCC25923, marked *: MIC value read at 48 hours)
CC(C)(C)ON=Cc1cc(C=CC(=O)O)ccc1-c1ccc(O)c(C23CC4CC(CC(C4)C2)C3)c1 [Compound 12, 3-[3′-Adamantan-1-yl-4′hydroxy-2-tert-butoxyiminomethyl-biphenyl-4-yl]-acrylic acid]	4 µg/mL (≈ 8.45 µM)	2 to 4 µg/mL (≈ 4.22 to 8.45 µM)	128 µg/mL (≈ 270 µM)	256 µg/mL (≈ 541 µM)	8 µg/mL (≈ 16.9 µM)	2 µg/mL (≈ 4.22 µM)	8 µg/mL (≈ 16.9 µM)	2 µg/mL (≈ 4.22 µM)	4 µg/mL (≈ 8.45 µM)	2 µg/mL (≈ 4.22 µM)	256 µg/mL (≈ 541 µM)	4 µg/mL (≈ 8.45 µM)	2 µg/mL (≈ 4.22 µM)	2 µg/mL (≈ 4.22 µM)	2 µg/mL (≈ 4.22 µM)	–	–	–	–
O=C(O)/C=C/c1ccc(-c2ccc(O)c(C34CC5CC(CC(C5)C3)C4)c2)cc1 [adarotene, reference compound]	16 µg/mL (≈ 42.7 µM)	4 to 8 µg/mL (≈ 10.7 to 21.4 µM)	128 µg/mL (≈ 342 µM)	256 µg/mL (≈ 684 µM)	32 µg/mL (≈ 85.5 µM)	2 µg/mL (≈ 5.34 µM)	32 µg/mL (≈ 85.5 µM)	–	16 µg/mL (≈ 42.7 µM)	–	256 µg/mL (≈ 684 µM)	16 µg/mL (≈ 42.7 µM)	–	8 µg/mL (≈ 21.4 µM)	4 µg/mL (≈ 10.7 µM)	512 µg/mL (≈ 1370 µM)	2 to 4 µg/mL (≈ 5.34 to 10.7 µM)	0.5 to 1 µg/mL (≈ 1.34 to 2.67 µM)	4 to 8 µg/mL (≈ 10.7 to 21.4 µM)
CON=Cc1cc(/C=C/C(=O)O)ccc1-c1ccc(O)c(C23CC4CC(CC(C4)C2)C3)c1 [Compound 13, 3-[3′-Adamantan-1-yl-4′-hydroxy-2-methoxyimino-methyl-biphenyl-4-yl]-acrylic acid]	4 µg/mL (≈ 9.27 µM)	2 to 4 µg/mL (≈ 4.63 to 9.27 µM)	128 µg/mL (≈ 297 µM)	512 µg/mL (≈ 1190 µM)	32 µg/mL (≈ 74.2 µM)	8 µg/mL (≈ 18.5 µM)	16 µg/mL (≈ 37.1 µM)	–	16 µg/mL (≈ 37.1 µM)	–	256 µg/mL (≈ 593 µM)	4 µg/mL (≈ 9.27 µM)	2 µg/mL (≈ 4.63 µM)	32 µg/mL (≈ 74.2 µM)	4 µg/mL (≈ 9.27 µM)	512 µg/mL (≈ 1190 µM)	4 to 8 µg/mL (≈ 9.27 to 18.5 µM)	4 to 8 µg/mL (≈ 9.27 to 18.5 µM)	–
